{
  "source": "paper PMC8121805",
  "about": "“Discovery of first-in-class inhibitors of ASH1L histone methyltransferase with anti-leukemic activity” (Nature Communications, 2021)",
  "type_in_all_cases": "cell-based, human",
  "key": {"MV4;11 cells": {"system": "MV4;11 cells", "experiment": "Flow cytometry of CD11B expression (differentiation)", "details": "for MV4;11 % CD11B+ cells: 7 days", "experimental": "(§1) In addition, 1 × 10^5 cells per sample were stained with Zombie Aqua™ dye (1:100 dilution) for 15 min using the Zombie Aqua™ Fixable Viability Kit (Zombie Aqua™ Fixable Viability Kit, Biolegend®) […] and then for 30 min with an anti-CD11B-PE antibody (982606, ICRF44, Biolegend®) or anti-CD11B-Pacific Blue (101224, BD BioLegend) antibody at 1:50 dilution, according to the No-wash Sequential Staining Protocol described by the manufacturer (BioLegend, Zombie Aqua Fixable Viability Kit). Cells were washed twice with 500 µL PBS containing 1% FBS and resuspended in 200 µL PBS with 1% FBS."}, "KOPN8 cells [1]": {"system": "KOPN8 cells", "experiment": "Flow cytometry of CD11B expression (differentiation)", "details": "7 days", "experimental": "as §1"}, "KOPN8 cells [2]": {"system": "KOPN8 cells", "experiment": "Annexin V apoptosis assay (flow cytometry)", "details": "7 days"}, "K562 cells": {"system": "K562 cells", "experiment": "MTT cell viability assay", "details": "MTT, 7 days", "experimental": "(§2) Human leukemia cells K562, MV4;11 and RS4;11 (purchased from ATCC) and KOPN8, MOLM13 (purchased from DSMZ) were cultured in RPMI 1640 (Invitrogen) supplemented with 10% heat inactivated (h.i.) FBS and 1% penicillin/streptomycin (Invitrogen). SET2 cells (purchased from DSMZ) were cultured in RPMI 1640 supplemented with 20% h.i. FBS and 1% penicillin/streptomycin. Cells were plated at 1 × 10^5 to 2 × 10^5 cells/mL depending on cell line and treated with 0.25% DMSO or varying concentrations of compounds and incubated at 37 °C, 5% CO2 incubator for 7 days. Media was changed on day 3 or 4 and compounds were resupplied. […] Cell suspensions (100 μL) were transferred to the 96-well plates for each sample in quadruplicate at the time of media change. At day 7, 10 µL of MTT reagent (M6494, Molecular Probes™) was added to each well of the 96 well plate and incubated at 37 °C for 4 h. The formazan was then solubilized by adding 100 µL acidified 10% SDS solution and incubated at 37 °C overnight. Plates were read for absorbance at 570 nm using a PHERAstar BMG microplate reader. The experiments were performed two times in quadruplicates with calculation of mean and SD for each condition. Data were analyzed in Prism 8.0.0 to obtain GI50 values.\n(§3) Supplementary Figure 7. […] (a)\n(§4) Titration curves from the MTT cell viability assay performed after 4, 7, and 11 (or 10) days of\n(§5) Titration curves from the MTT cell viability assay performed after 7 days of treatment of KOPN8 ,\n(§6) MOLM13 and MV4;11 cell lines harboring MLL1 translocation (MLL1-r) or K562 cell line (non-\n(§7) Representative graphs are shown\n(§8) from two independent MTT experiments performed for each cell line. GI50 values correspond to […]"}, "KOPN8 cells [3]": {"system": "KOPN8 cells", "experiment": "MTT cell viability assay", "details": "MTT, 7 days", "experimental": "as §2, §3, §4, §5, §6, §7, §8"}, "[4]": {"system": "MLL fusion target genes in MV4;11 cells", "experiment": "Real time qRT-PCR gene expression", "details": "AS-nc 3 uM", "experimental": "0.5 × 10^6 – 3 × 10^6 cells from each sample were collected at days 7 or 8 of treatment, centrifuged at 211 xg, and RNA was extracted according to the RNeasy Mini Kit protocol (74106, Qiagen). Extracted RNA was quantified using Nanodrop 2000 UV-Vis spectrophotometer and 0.5–1 µg of total RNA was reverse transcribed into cDNA using High-Capacity cDNA Reverse Transcription Kit (4368814, Applied Biosystems™) according to the manufacturer’s protocol. Real-time PCR was performed using the CFX96 Touch Real-Time PCR Detection System (Bio-Rad). TaqMan Gene Expression Master Mix and TaqMan Gene Expression Assays were purchased from Applied Biosystems. Relative quantification of each gene transcript was carried out using the comparative Ct method as described in the Applied Biosystems User Bulletin no. 2. TaqMan Gene Expression Assays were used: HPRT1: Hs02800695_m1, DLX2: Hs00269993_m1, FLT3: Hs00174690_m1, HOXA9: Hs00365956_m1, MEF2C: Hs00231149_m1, MEIS1: Hs00180020_m1, MNDA: Hs00935905_m1.\nSupplementary Figure 10. Effect of AS-nc on gene expression in MLL leukemia cells. (a, b) Quantitative RT-PCR performed in MOLM13 cells (a) or MV4;11 cells (b) after 7 days of treatment with AS-nc. Gene expression was normalized to HPRT1 and referenced to the DMSO treated cells. Representative data from two independent experiments, each performed in triplicates, […]"}, "SET2 cells": {"system": "SET2 cells", "experiment": "MTT cell viability assay", "details": "MTT, 7 days", "experimental": "as §2"}, "RS4;11 cells": {"system": "RS4;11 cells", "experiment": "MTT cell viability assay", "details": "7 days", "experimental": "as §2"}},
  "note": "Values joined by “and” are separate entries in the source; they are usually repeats but may differ in a detail not shown here. Equal entries are not always repeated.",
  "data": [
    {"smiles": "CN1CC(C(=O)NCc2ccc3c(-c4cccc(C(N)=O)c4)cn(C4CCN(S(=O)(=O)C(F)(F)F)CC4)c3c2)C1", "note": "[AS-nc]", "values": [
      {"measurement": "MV4;11 % CD11B+ cells", "setting": "MV4;11 cells; 2 uM", "result": "1.31% and 1.08% and 1.06%"},
      {"measurement": "MV4;11 % CD11B+ cells", "setting": "MV4;11 cells; 4 uM", "result": "0.67% and 0.84% and 0.66%"},
      {"measurement": "MV4;11 % CD11B+ cells", "setting": "MV4;11 cells; 6 uM", "result": "1.1% and 1.04% and 1.27%"},
      {"measurement": "differentiation in MLL leukemia cells", "setting": "MV4;11 cells; MV4;11 and KOPN8", "result": "not observed"},
      {"measurement": "KOPN8 % CD11B+ cells", "setting": "KOPN8 cells [1]; 2 uM", "result": "0.42% and 0.43% and 0.48%"},
      {"measurement": "KOPN8 % CD11B+ cells", "setting": "KOPN8 cells [1]; 4 uM", "result": "0.64% and 0.72% and 0.67%"},
      {"measurement": "KOPN8 % CD11B+ cells", "setting": "KOPN8 cells [1]; 6 uM", "result": "0.89% and 0.7% and 0.72%"},
      {"measurement": "KOPN8 % Annexin V(+) cells", "setting": "KOPN8 cells [2]; 2 uM", "result": "6.32% and 5.25% and 5.31%"},
      {"measurement": "KOPN8 % Annexin V(+) cells", "setting": "KOPN8 cells [2]; 4 uM", "result": "7.36% and 6.41% and 6.28%"},
      {"measurement": "KOPN8 % Annexin V(+) cells", "setting": "KOPN8 cells [2]; 6 uM", "result": "7.96% and 6.03% and 6.25%"},
      {"measurement": "% activity K562", "setting": "K562 cells; log[compound] -4.92082", "result": "87.2356% and 88.3293% and 79.0617% and 81.4793%"},
      {"measurement": "% activity K562", "setting": "K562 cells; log[compound] -5.22185", "result": "96.906% and 94.8338% and 87.581% and 99.8993%"},
      {"measurement": "% activity K562", "setting": "K562 cells; log[compound] -5.52288", "result": "91.5527% and 87.8688% and 87.2356% and 88.1566%"},
      {"measurement": "% activity K562", "setting": "K562 cells; log[compound] -5.82391", "result": "106.979% and 101.569% and 98.9783% and 92.4737%"},
      {"measurement": "% activity K562", "setting": "K562 cells; log[compound] -6.12494", "result": "95.2367% and 84.818% and 86.8902% and 88.0414%"},
      {"measurement": "% activity K562", "setting": "K562 cells; log[compound] -6.42597", "result": "88.8473% and 100.475% and 98.4026% and 99.0934%"},
      {"measurement": "% activity KOPN-8", "setting": "KOPN8 cells [3]; log[compound] -4.92082", "result": "88.0603% and 89.0658% and 78.5086% and 67.1135%"},
      {"measurement": "% activity KOPN-8", "setting": "KOPN8 cells [3]; log[compound] -5.22185", "result": "96.2715% and 87.8928% and 88.5631% and 98.2824%"},
      {"measurement": "% activity KOPN-8", "setting": "KOPN8 cells [3]; log[compound] -5.52288", "result": "93.4227% and 96.9418% and 95.7687% and 88.2279%"},
      {"measurement": "% activity KOPN-8", "setting": "KOPN8 cells [3]; log[compound] -5.82391", "result": "91.9145% and 89.5685% and 90.7415% and 92.2497%"},
      {"measurement": "% activity KOPN-8", "setting": "KOPN8 cells [3]; log[compound] -6.12494", "result": "92.2497% and 92.4173% and 96.2715% and 88.7306%"},
      {"measurement": "% activity KOPN-8", "setting": "KOPN8 cells [3]; log[compound] -6.42597", "result": "96.439% and 101.969% and 107.164% and 94.4282%"},
      {"measurement": "MV4;11 fold change vs DMSO, FLT3", "setting": "[4]", "result": "1.06 and 0.99 and 0.95"},
      {"measurement": "MV4;11 fold change vs DMSO, HOXA9", "setting": "[4]", "result": "1.01 and 0.9"},
      {"measurement": "MV4;11 fold change vs DMSO, MEF2C", "setting": "[4]", "result": "1.19 and 1.02 and 0.92"},
      {"measurement": "MV4;11 fold change vs DMSO, MESIS1", "setting": "[4]", "result": "0.86 and 1.07 and 0.96"},
      {"measurement": "% activity SET2", "setting": "SET2 cells; log[compound] -4.92082", "result": "98.5542% and 101.644% and 102.951% and 102.436%"},
      {"measurement": "% activity SET2", "setting": "SET2 cells; log[compound] -5.22185", "result": "96.2567% and 98.5146% and 98.9107% and 94.9495%"},
      {"measurement": "% activity SET2", "setting": "SET2 cells; log[compound] -5.52288", "result": "90.1168% and 94.8703% and 93.8007% and 101.723%"},
      {"measurement": "% activity SET2", "setting": "SET2 cells; log[compound] -5.82391", "result": "80.8081% and 86.1953% and 84.7693% and 93.5235%"},
      {"measurement": "% activity SET2", "setting": "SET2 cells; log[compound] -6.12494", "result": "93.2858% and 94.8703% and 102.04% and 107.625%"},
      {"measurement": "% activity SET2", "setting": "SET2 cells; log[compound] -6.42597", "result": "105.803% and 101.208% and 102.278% and 90.711%"},
      {"measurement": "% activity RS4;11", "setting": "RS4;11 cells; log[compound] -4.92082", "result": "85.5125% and 87.6993% and 89.3394% and 75.672%"},
      {"measurement": "% activity RS4;11", "setting": "RS4;11 cells; log[compound] -5.22185", "result": "105.376% and 104.647% and 93.5307% and 91.5262%"},
      {"measurement": "% activity RS4;11", "setting": "RS4;11 cells; log[compound] -5.52288", "result": "102.096% and 100.638% and 93.713% and 78.4055%"},
      {"measurement": "% activity RS4;11", "setting": "RS4;11 cells; log[compound] -5.82391", "result": "120.137% and 113.941% and 76.4009% and 77.1298%"},
      {"measurement": "% activity RS4;11", "setting": "RS4;11 cells; log[compound] -6.12494", "result": "99.7267% and 104.647% and 93.8952%"},
      {"measurement": "% activity RS4;11", "setting": "RS4;11 cells; log[compound] -6.42597", "result": "106.287% and 103.553% and 98.8155% and 91.344%"}
    ]}
  ]
}
